PMC10086185, “Synthesis, radiolabeling, and evaluation of a (4-quinolinoyl)glycyl-2-cyanopyrrolidine analogue for fibroblast activation protein (FAP) PET imaging” (Frontiers in Bioengineering and Biotechnology, 2023)
Values joined by “and” are separate entries in the source; they are usually repeats but may differ in a detail not shown here. Equal values may be shown once.

How the values were obtained:
[1] = Lipid/water partition coefficient in octanol/PBS (log D 7.4); format: physicochemical; conditions: pH 7.4
Description: The lipid/water partition coefficient of [^18F]3 was tested in octanol/PBS mixtures, following the published literature reports ([Li et al., 2019]) and presented as log D 7.4 values. Briefly, a small volume of [^18F]3 was added into an octanol/water mixture, and then, a series of diluted octanol/PBS mixtures was obtained, as described in the literature. The CPM in octanol and the PBS layer was obtained in a Wizard 2470 gamma counter (PerkinElmer) and was used to calculate the lipid/PBS partition coefficient. Several continuous and stable partition coefficient values were selected to calculate the log D 7.4 values.

[2] = Biodistribution in normal Kunming mice; format: in vivo; conditions: for Biodistribution, Intestine, single mice: individual animals; for Biodistribution, Blood / Biodistribution, Bone / Biodistribution, Brain / Biodistribution, Heart / Biodistribution, Intestine / Biodistribution, Kidney / Biodistribution, Lungs / Biodistribution, Muscle / Biodistribution, Spleen / Biodistribution, Stomach / Biodistribution, Liver: mean (SD), n = 5
Description: Normal Kunming mice (4 weeks, 20–25 g) were injected intravenously with about 740 KBq of [^18F]3 in 100 µL of PBS saline solution via the tail vein. All subjects were grouped by time points (n = 5). At designated time points, all subjects were sacrificed, and the organs and tissues were harvested, weighted, and counted in a PerkinElmer Wizard 2470 gamma counter. All the counts obtained from the gamma counter were decay-corrected and used to calculate the tissue biodistribution data, which is presented as the percentage of injected dose per gram of organ (%ID/g).

[3] = tested on: A549-FAPI xenograft tumors; assay: Micro-PET/CT imaging, A549-FAPI xenograft tumors; format: in vivo, BALB/c nude mice
Description: BALB/c nude mice used in this study were obtained from the Animal Center of Sichuan University. Tumor-bearing mouse models were established by the subcutaneous injection of 100 µL of PBS suspension containing approximately 1*10^6 tumor cells to the body side of the subjects. The tumor volume was monitored every day, and the tumor-bearing mice were ready for imaging once the tumor volume reached 0.5 mm^3 (tumor volume can be calculated by this equation: Volume = 0.5 * long tail * short tail *short tail). Micro-PET/CT imaging studies were performed on the IRIS Micro-PET/CT system (Inviscan SAS, France). Tumor-bearing mice were injected with approximately 11.2–14.8 MBq of [^18F]3 (200 µL) via the tail vein under anaesthetization by isoflurane. Static PET images were obtained at designated time points and were reconstructed with a 3D-OSEM algorithm using a Monte Carlo-based accurate detector model. Then, 170 sec-CT acquisition was conducted with 50 kV, 1 mA X-ray output for attenuation correction and anatomical orientation. ROIs (regions of interest) were drawn on the lung, kidney, liver, and tumor by OsiriX software. SUV (standardized uptake value) of the ROIs was directly obtained from OsiriX for each subject according to this formula: SUV = Voxal value (Bq/mL) * Body weight (kg)/(Decay corrected Dose (Bq) * 1,000 (g/kg)).
BALB/c nude mice used in this study were obtained from the Animal Center of Sichuan university. Tumor-bearing mice model were established by the subcutaneous injection of 100 µL of PBS suspension containing approximately 1*10^6 tumor cells to the body side of the subjects. The tumor volume was monitored every day and the tumor-bearing mice were ready for imaging once the tumor volume reach 0.5 mm^3 (tumor volume can be calculated by this equation: Volume = 0.5 * long tail * short tail *short tail). Micro-PET/CT imaging studies were performed on the IRIS Micro-PET/CT system (Inviscan SAS, France). Tumor-bearing mice were injected with approximately 11.2-14.8 MBq of [^18F]3 (200 µL) via tail vein under anaesthetization by isoflurane. Static PET images were obtained at designated time points and were reconstructed with a 3D-OSEM algorithm using a Monte-Carlo based accurate detector model. A 170 sec-CT acquisition was conducted with 50 kV, 1 mA X-ray output for attenuation correction and anatomical orientation. ROIs (regions of interest) were drawn on lung, kidney, liver and tumor by Osirix software. SUV (standardized uptake value) of the ROIs was directly obtained from Osirix for each subject according to this formula: SUV = Voxal value (Bq/mL) * Body weight (kg)/(Decay corrected Dose (Bq) * 1000 (g/kg)).

[4] = A549-FAPI tumors, pre-injection of compound 3, 2 mg/kg

## N#C[C@@H]1CC(F)(F)CN1C(=O)CNC(=O)c1ccnc2ccc([18F])cc12 [[^18F]3]
[1]
  logD: 1.11
[2]; 5 min post-injection (time inferred from the means)
  Biodistribution, Intestine, single mice: 10.34 %ID/g and 11.05 %ID/g and 10.3 %ID/g and 22.06 %ID/g and 16.22 %ID/g
[2]; 5 min post-injection
  Biodistribution, Blood: 12.96 ± 2.03 %ID/g
  Biodistribution, Bone: 1.86 ± 0.54 %ID/g
  Biodistribution, Brain: 0.80 ± 0.29 %ID/g
  Biodistribution, Heart: 11.00 ± 1.64 %ID/g
  Biodistribution, Intestine: 13.99 ± 4.60 %ID/g
  Biodistribution, Kidney: 22.59 ± 5.74 %ID/g
  Biodistribution, Lungs: 11.36 ± 1.89 %ID/g
  Biodistribution, Muscle: 8.02 ± 1.34 %ID/g
  Biodistribution, Spleen: 8.71 ± 1.50 %ID/g
  Biodistribution, Stomach: 7.82 ± 0.86 %ID/g
[2]; 15 min post-injection (time inferred from the means)
  Biodistribution, Intestine, single mice: 27.17 %ID/g and 17.59 %ID/g and 22.86 %ID/g and 23.43 %ID/g
[2]; 15 min post-injection
  Biodistribution, Blood: 6.90 ± 1.13 %ID/g
  Biodistribution, Bone: 1.59 ± 0.51 %ID/g
  Biodistribution, Brain: 0.61 ± 0.25 %ID/g
  Biodistribution, Heart: 5.71 ± 1.12 %ID/g
  Biodistribution, Intestine: 20.10 ± 6.14 %ID/g
  Biodistribution, Kidney: 12.72 ± 3.88 %ID/g
  Biodistribution, Liver: 27.82 ± 6.35 %ID/g
  Biodistribution, Lungs: 6.84 ± 1.43 %ID/g
  Biodistribution, Muscle: 5.32 ± 1.02 %ID/g
  Biodistribution, Spleen: 4.56 ± 1.09 %ID/g
  Biodistribution, Stomach: 6.98 ± 1.36 %ID/g
[2]; 30 min post-injection (time inferred from the means)
  Biodistribution, Intestine, single mice: 31.76 %ID/g and 22.3 %ID/g and 32.3 %ID/g and 24.86 %ID/g and 56.33 %ID/g
[2]; 30 min post-injection
  Biodistribution, Blood: 4.35 ± 0.66 %ID/g
  Biodistribution, Bone: 1.80 ± 0.60 %ID/g
  Biodistribution, Brain: 0.35 ± 0.10 %ID/g
  Biodistribution, Heart: 3.53 ± 0.33 %ID/g
  Biodistribution, Intestine: 33.51 ± 12.05 %ID/g
  Biodistribution, Kidney: 8.48 ± 1.34 %ID/g
  Biodistribution, Liver: 15.34 ± 2.67 %ID/g
  Biodistribution, Lungs: 5.15 ± 1.59 %ID/g
  Biodistribution, Spleen: 2.95 ± 0.49 %ID/g
  Biodistribution, Stomach: 5.50 ± 1.26 %ID/g
[2]; 60 min post-injection (time inferred from the means)
  Biodistribution, Intestine, single mice: 31 %ID/g and 24.55 %ID/g and 17.85 %ID/g and 13.74 %ID/g and 9.5 %ID/g
[2]; 60 min post-injection
  Biodistribution, Blood: 2.61 ± 0.18 %ID/g
  Biodistribution, Bone: 1.91 ± 0.33 %ID/g
  Biodistribution, Brain: 0.20 ± 0.04 %ID/g
  Biodistribution, Heart: 1.91 ± 0.24 %ID/g
  Biodistribution, Intestine: 19.33 ± 7.66 %ID/g
  Biodistribution, Kidney: 5.07 ± 0.81 %ID/g
  Biodistribution, Liver: 9.03 ± 3.62 %ID/g
  Biodistribution, Lungs: 2.35 ± 1.07 %ID/g
  Biodistribution, Muscle: 2.60 ± 1.20 %ID/g
  Biodistribution, Spleen: 1.46 ± 0.24 %ID/g
  Biodistribution, Stomach: 2.98 ± 1.22 %ID/g
[2]; 90 min post-injection (time inferred from the means)
  Biodistribution, Intestine, single mice: 6.25 %ID/g and 12.96 %ID/g and 10.39 %ID/g and 11.77 %ID/g and 4.91 %ID/g
[2]; 120 min post-injection (time inferred from the means)
  Biodistribution, Intestine, single mice: 6.06 %ID/g and 1.76 %ID/g and 4.52 %ID/g and 2.19 %ID/g and 9.23 %ID/g
[2]; 120 min post-injection
  Biodistribution, Blood: 1.29 ± 0.28 %ID/g
  Biodistribution, Bone: 1.65 ± 0.81 %ID/g
  Biodistribution, Brain: 0.08 ± 0.02 %ID/g
  Biodistribution, Heart: 0.93 ± 0.20 %ID/g
  Biodistribution, Intestine: 4.75 ± 2.73 %ID/g
  Biodistribution, Kidney: 2.27 ± 0.93 %ID/g
  Biodistribution, Liver: 5.39 ± 3.36 %ID/g
  Biodistribution, Lungs: 1.87 ± 0.49 %ID/g
  Biodistribution, Muscle: 1.51 ± 0.48 %ID/g
  Biodistribution, Spleen: 0.85 ± 0.13 %ID/g
  Biodistribution, Stomach: 1.63 ± 0.51 %ID/g
[2]; 240 min post-injection (time inferred from the means)
  Biodistribution, Intestine, single mice: 7.72 %ID/g and 2.48 %ID/g and 5.26 %ID/g and 2.09 %ID/g and 6.66 %ID/g
[2]; 240 min post-injection
  Biodistribution, Blood: 0.75 ± 0.19 %ID/g
  Biodistribution, Bone: 1.33 ± 0.30 %ID/g
  Biodistribution, Brain: 0.04 ± 0.02 %ID/g
  Biodistribution, Heart: 0.39 ± 0.11 %ID/g
  Biodistribution, Intestine: 4.84 ± 2.23 %ID/g
  Biodistribution, Kidney: 0.82 ± 0.23 %ID/g
  Biodistribution, Liver: 2.47 ± 1.47 %ID/g
  Biodistribution, Lungs: 0.69 ± 0.19 %ID/g
  Biodistribution, Muscle: 0.76 ± 0.23 %ID/g
  Biodistribution, Spleen: 0.38 ± 0.13 %ID/g
  Biodistribution, Stomach: 1.64 ± 0.69 %ID/g
[2]; all time points
  Activity in the bone: lower than 2 %ID/g
  Radioactivity in the brain: lower than 1 %ID/g
[3]; A549-FAPI tumors, 90 min p.i.
  Tumor-to-muscle (T/M) ratio: 4.34
[3]; [4]
  Tumor SUV, blocking group: lower than 0.2
  Tumor-to-muscle (T/M) ratio, blocking group: less than 2.0
[3]; A549-FAPI xenografted tumors, within 90 min
  Tumor SUV: greater than 0.4
